Data on one compound can be found in patent publication US8496913B2, “Compressed chewing gum tablet” (Gumlink A/S, priority 2005, dated 2013).

Structures are written as SMILES.

The assay deals with plaque. The following applies: in vivo.

Turning to `CC(=O)[O-].CC(=O)[O-].[Zn+2]` [zinc acetate], the “effect on plaque in hard-to-reach places” value is “with high efficiency”.
